Data reported in ChEMBL document CHEMBL1201862, “PubChem BioAssay data set” (2004).
Active and inactive are the calls of the source.

Legend:
[1] = growth suppression of beta-catenin-knockout colon cells, dose response, cell-based, HCT116, human colon tumor (AID 1045); format: functional;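 further: HCT116 colon tumor cells with beta catenin knocked out; cells exposed to compound for 60 hours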
[2] = nonselective inhibitors of cellular cAMP signaling, dose response, counter-screen for MC4R biased antagonist project, cell-based, TR-FRET cAMP detection (AID 602305); format: functional;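 further: U2OS cells stimulated with forskolin near its EC80 as the cAMP inducer; potency is for inhibition of forskolin-stimulated cAMP signaling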
[3] = test system: Jurkat; test: antigen receptor-induced NF-kB inhibitors, dose response, Jurkat, luciferase reporter, luminescence, B- and T-cell (AID 489004); format: functional, cell-based; settings: Homo sapiens;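 further: NF-kB luciferase reporter Jurkat cells stimulated with PMA plus ionomycin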
[4] = cytotoxicity toward NIH3T3 fibroblasts, dose response, counter-screen, cell-based, ATP luminescence, mouse fibroblasts (AID 2010); format: functional;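 further: cells exposed to compound for about 90 hours before reading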
[5] = cytotoxicity in HPDE-C7 cells, cell-based, fluorescence, HTS (AID 430); format: functional; settings: Homo sapiens
[6] = growth suppression of PTEN-null colon cells, dose response, cell-based, HCT116 PTEN knockout (AID 1047); format: functional;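 further: HCT116 colon tumor cells with PTEN knocked out; cells exposed to compound for 60 hours before readout; potency for loss of cell viability measured by luminescence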
[7] = cytotoxicity in HEK-293T NF-kB-Luc cells, dose response, cytotoxicity control for B/T-cell NF-kB inhibitor project, cell-based, uHTS hits (AID 489019); format: functional;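 further: IC50 reflects cytotoxicity as loss of cell viability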
[8] = target: Melanocortin receptor 4 (Homo sapiens, UniProt P32245); test: MC4R antagonist potency on cAMP, dose response, cell-based, TR-FRET, biased antagonists (AID 602298); format: functional;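 further: antagonist potency against agonist-stimulated cAMP production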
[9] = inhibitors of intracellular T. cruzi replication, confirmation, NIH3T3 host cells, beta-gal luminescence (AID 2044); format: functional, cell-based;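 further: intracellular parasites grown in NIH/3T3 mouse fibroblasts as host cells; luminescent beta-galactosidase reporter signal from transgenic T. cruzi replicating inside host cells; inhibitors lower the luminescence signal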
[10] = cytotoxicity in KRAS-transformed pancreatic duct cells, primary screen, cell-based, fluorescence, HTS (AID 431); format: functional; settings: Homo sapiens;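 further: cell line used: HPDE-C7K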
[11] = target: T1, CAAX prenyl protease 2 (Homo sapiens, UniProt Q9Y256); test: human Rce1 protease inhibitors, dose response, biochemical, yeast membranes, quenched-peptide fluorescence, cherry-pick (AID 588849)
T1 sequence (Q9Y256 whole entry): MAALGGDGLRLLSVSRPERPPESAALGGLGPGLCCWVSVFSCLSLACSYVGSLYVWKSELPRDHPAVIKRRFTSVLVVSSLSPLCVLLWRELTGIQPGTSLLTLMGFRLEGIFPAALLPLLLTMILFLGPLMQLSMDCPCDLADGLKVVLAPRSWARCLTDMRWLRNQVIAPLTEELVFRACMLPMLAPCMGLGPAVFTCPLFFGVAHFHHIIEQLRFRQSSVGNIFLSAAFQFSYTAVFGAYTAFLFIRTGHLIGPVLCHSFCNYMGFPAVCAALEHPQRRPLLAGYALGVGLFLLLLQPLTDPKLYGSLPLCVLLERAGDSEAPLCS

[12] = target: Trypsin (Sus scrofa, UniProt P00761); test: porcine trypsin inhibitors, dose response, selectivity assay for Rce1 protease inhibitor project, biochemical, quenched peptide fluorescence, cherry-pick (AID 488789)
[13] = target: CAAX prenyl protease 1 (Saccharomyces cerevisiae S288c, UniProt P47154); test: Ste24 protease inhibitors, dose response, biochemical, S. cerevisiae, plate reader, cherry-pick (AID 488815)
[14] = target: Dual specificity protein phosphatase 3 (Homo sapiens, UniProt P51452); test: SAR VHR1 Fluorescent Assay for In Vitro dose response studies Set 2. [Related pubchem assays (depositor defined):AID1654, AID1661, AID1878]; format: functional
[15] = target: Tyrosine-protein phosphatase non-receptor type 12 (Homo sapiens, UniProt Q05209); test: SAR Selectivity Analysis of small molecule inhibitors of PEST using pCAP in a fluorescence assay. [Related pubchem assays (depositor defined):AID1779, AID1784, AID2135]; format: functional
[16] = target: T2, Tyrosine-protein phosphatase non-receptor type 7 (Homo sapiens, UniProt P35236); test: redox-dependent HePTP inhibition, mechanism study, biochemical, fluorescence (AID 2068); format: functional
T2 sequence (P35236 whole entry): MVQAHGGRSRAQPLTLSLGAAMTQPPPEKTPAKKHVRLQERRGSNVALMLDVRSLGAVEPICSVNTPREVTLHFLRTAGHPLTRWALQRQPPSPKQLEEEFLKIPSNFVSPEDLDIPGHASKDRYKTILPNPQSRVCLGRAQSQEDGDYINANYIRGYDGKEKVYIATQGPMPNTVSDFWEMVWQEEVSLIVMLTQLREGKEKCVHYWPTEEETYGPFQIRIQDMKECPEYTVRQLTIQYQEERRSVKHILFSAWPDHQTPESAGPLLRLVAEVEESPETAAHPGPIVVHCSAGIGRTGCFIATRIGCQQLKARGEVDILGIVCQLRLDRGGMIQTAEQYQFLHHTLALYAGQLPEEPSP

[17] = target: T3, Dual specificity protein phosphatase 6 (Rattus norvegicus, UniProt Q64346); format: functional;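 further: confirmatory in vitro dose-response testing of MKP-3 inhibition; recombinant His-tagged MKP-3 made in E. coli BL21 with OMFP substrate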
T3 sequence (Q64346 whole entry): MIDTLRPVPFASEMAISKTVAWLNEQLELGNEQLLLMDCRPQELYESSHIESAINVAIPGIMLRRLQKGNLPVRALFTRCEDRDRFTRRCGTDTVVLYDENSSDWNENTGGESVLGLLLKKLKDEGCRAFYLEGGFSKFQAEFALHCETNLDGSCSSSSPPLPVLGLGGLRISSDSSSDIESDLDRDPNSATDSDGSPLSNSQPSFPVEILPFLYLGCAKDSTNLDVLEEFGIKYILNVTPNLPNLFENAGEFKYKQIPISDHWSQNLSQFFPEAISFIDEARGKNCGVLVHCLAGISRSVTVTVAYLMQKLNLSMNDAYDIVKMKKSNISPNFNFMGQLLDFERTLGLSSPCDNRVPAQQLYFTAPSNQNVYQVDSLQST

[18] = target: T4, Tyrosine-protein phosphatase non-receptor type 22 (Homo sapiens, UniProt Q9Y2R2); test: SAR LYP1 Fluorescent Assay using OMFP substrate for In Vitro dose response studies - Set 3. [Related pubchem assays (depositor defined):AID1779, AID1784, AID2140, AID2686]; format: functional
T4 sequence (Q9Y2R2 whole entry): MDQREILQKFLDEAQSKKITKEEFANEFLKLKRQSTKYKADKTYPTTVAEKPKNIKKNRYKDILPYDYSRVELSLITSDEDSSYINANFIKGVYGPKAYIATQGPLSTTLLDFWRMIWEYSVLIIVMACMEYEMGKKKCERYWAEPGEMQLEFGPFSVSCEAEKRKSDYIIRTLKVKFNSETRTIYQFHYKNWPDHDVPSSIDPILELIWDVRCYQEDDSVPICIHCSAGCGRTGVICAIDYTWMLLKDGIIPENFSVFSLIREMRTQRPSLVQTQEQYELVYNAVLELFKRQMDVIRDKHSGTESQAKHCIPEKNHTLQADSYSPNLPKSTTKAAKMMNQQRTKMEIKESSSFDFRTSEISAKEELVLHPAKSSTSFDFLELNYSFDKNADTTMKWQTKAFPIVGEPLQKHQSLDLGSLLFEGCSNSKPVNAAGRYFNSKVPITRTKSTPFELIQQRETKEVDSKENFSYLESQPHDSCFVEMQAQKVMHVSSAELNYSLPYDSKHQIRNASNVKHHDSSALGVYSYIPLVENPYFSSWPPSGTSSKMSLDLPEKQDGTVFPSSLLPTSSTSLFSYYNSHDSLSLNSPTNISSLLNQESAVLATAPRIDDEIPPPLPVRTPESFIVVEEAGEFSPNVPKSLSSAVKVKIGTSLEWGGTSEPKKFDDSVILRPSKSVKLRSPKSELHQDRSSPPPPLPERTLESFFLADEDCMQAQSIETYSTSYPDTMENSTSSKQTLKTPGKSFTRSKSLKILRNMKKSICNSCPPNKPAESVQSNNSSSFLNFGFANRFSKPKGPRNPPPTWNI

[19] = target: T4, Tyrosine-protein phosphatase non-receptor type 22; test: LYP (PTPN22) phosphatase inhibitor potency, SAR follow-up, biochemical, pCAP fluorogenic substrate, fluorescence, set 3 (AID 449727); format: functional
[20] = target: T2, Tyrosine-protein phosphatase non-receptor type 7; test: HePTP (PTPN7) phosphatase inhibitor potency, SAR follow-up, biochemical, set 2 (AID 449736); format: functional
[21] = NIH-3T3 fibroblast cytotoxicity, dose response, cytotoxicity control, cell-based, fluorescence, Alamar Blue, secondary assay (AID 2327); format: functional;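 further: NIH-3T3 mouse fibroblasts cultured with fluconazole at 8 µg/mL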
[22] = C. albicans growth with fluconazole, confirmation, fluorescence, retest (AID 2467); format: functional, cell-based
[23] = target: T5, Ubiquitin-conjugating enzyme E2 N (Homo sapiens, UniProt P61088); format: functional;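 further: Dose-response confirmation in a TR-FRET assay detecting UBC13-driven polyubiquitin chain formation, inhibition measured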
T5 sequence (P61088 whole entry): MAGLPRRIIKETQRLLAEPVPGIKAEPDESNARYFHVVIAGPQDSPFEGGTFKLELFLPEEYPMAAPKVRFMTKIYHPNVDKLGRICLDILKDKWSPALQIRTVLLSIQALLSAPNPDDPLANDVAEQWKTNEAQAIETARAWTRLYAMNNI

[24] = Luminescence Cell-Based Dose Retest to Confirm Inhibitors of Cancer Stem Cells. [Related pubchem assays (depositor defined):AID2717, AID2721]; format: functional; settings: Homo sapiens
[25] = target: T6, Replicative DNA helicase DnaB (Mycobacterium tuberculosis, UniProt P9WMR3); test: DnaB intein splicing inhibitors, dose response, biochemical, cell-free fluorescence (AID 449749); format: functional
T6 sequence (P9WMR3 whole entry): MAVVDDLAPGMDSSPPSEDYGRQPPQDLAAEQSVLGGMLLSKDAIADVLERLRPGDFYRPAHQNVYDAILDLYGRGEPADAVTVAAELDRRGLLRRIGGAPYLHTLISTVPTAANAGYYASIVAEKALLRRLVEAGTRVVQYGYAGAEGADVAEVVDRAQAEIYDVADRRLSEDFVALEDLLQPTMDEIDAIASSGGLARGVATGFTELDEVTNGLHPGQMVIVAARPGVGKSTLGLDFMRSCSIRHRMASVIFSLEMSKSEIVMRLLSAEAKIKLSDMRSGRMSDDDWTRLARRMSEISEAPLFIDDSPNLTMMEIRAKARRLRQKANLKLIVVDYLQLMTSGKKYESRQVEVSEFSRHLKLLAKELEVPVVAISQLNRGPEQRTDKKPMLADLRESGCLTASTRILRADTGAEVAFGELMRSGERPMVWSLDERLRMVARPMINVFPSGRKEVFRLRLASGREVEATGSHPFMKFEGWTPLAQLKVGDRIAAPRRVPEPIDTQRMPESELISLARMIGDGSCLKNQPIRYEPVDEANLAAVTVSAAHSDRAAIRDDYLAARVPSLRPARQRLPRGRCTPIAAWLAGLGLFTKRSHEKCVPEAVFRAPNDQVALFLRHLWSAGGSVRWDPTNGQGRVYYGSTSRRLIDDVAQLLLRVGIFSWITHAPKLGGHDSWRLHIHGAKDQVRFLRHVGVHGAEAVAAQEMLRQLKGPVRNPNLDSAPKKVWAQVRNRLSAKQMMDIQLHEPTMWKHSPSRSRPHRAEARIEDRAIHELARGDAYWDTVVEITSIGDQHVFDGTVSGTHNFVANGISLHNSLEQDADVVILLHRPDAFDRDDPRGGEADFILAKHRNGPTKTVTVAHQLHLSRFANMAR

[26] = target: T7, Protein RecA (Mycobacterium tuberculosis, UniProt P9WHJ3); test: Fluorescence Cell-Free Homogeneous Dose Retest to Identify Inhibitors of RecA-Intein Splicing Activity. [Related pubchem assays (depositor defined):AID2097, AID2223, AID489010, AID492950]; format: functional
T7 sequence (P9WHJ3 whole entry): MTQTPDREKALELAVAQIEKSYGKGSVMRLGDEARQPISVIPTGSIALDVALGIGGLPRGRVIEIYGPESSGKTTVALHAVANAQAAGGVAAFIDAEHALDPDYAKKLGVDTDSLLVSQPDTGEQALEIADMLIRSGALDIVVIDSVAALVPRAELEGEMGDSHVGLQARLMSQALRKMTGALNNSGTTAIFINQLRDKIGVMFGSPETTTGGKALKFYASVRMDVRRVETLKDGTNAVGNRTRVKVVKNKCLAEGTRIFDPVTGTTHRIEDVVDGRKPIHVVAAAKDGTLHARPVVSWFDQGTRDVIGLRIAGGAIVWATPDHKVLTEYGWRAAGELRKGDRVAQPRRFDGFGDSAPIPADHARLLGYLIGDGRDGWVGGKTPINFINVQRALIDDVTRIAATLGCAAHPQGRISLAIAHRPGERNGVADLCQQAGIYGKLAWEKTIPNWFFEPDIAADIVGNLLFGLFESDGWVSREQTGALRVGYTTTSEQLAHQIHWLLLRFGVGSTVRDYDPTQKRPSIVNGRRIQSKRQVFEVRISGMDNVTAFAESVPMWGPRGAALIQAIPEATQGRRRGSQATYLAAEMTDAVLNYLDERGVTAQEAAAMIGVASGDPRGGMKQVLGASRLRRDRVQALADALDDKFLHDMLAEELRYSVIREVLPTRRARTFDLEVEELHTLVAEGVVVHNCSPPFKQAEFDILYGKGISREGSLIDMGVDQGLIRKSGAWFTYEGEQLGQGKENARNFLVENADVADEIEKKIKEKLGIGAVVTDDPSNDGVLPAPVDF

CAAX prenyl protease 1, sequence (P47154 whole entry): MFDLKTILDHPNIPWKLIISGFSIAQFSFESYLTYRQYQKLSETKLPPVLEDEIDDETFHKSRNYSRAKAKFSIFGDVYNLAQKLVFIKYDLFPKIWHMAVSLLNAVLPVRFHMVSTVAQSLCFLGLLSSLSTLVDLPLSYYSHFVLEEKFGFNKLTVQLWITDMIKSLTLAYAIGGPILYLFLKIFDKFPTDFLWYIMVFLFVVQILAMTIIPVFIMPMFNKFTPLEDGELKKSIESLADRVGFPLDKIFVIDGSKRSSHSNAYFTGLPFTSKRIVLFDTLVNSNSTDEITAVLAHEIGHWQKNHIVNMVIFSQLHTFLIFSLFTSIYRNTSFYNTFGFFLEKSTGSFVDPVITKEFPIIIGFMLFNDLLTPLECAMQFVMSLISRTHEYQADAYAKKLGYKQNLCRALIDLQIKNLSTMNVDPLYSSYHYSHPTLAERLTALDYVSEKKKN
Dual specificity protein phosphatase 3, sequence (P51452 whole entry): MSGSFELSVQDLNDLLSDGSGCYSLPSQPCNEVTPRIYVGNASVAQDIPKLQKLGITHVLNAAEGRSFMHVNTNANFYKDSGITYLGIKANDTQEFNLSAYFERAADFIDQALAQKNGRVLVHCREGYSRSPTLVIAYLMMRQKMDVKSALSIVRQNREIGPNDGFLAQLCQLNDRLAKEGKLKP
Tyrosine-protein phosphatase non-receptor type 12, sequence (Q05209 whole entry): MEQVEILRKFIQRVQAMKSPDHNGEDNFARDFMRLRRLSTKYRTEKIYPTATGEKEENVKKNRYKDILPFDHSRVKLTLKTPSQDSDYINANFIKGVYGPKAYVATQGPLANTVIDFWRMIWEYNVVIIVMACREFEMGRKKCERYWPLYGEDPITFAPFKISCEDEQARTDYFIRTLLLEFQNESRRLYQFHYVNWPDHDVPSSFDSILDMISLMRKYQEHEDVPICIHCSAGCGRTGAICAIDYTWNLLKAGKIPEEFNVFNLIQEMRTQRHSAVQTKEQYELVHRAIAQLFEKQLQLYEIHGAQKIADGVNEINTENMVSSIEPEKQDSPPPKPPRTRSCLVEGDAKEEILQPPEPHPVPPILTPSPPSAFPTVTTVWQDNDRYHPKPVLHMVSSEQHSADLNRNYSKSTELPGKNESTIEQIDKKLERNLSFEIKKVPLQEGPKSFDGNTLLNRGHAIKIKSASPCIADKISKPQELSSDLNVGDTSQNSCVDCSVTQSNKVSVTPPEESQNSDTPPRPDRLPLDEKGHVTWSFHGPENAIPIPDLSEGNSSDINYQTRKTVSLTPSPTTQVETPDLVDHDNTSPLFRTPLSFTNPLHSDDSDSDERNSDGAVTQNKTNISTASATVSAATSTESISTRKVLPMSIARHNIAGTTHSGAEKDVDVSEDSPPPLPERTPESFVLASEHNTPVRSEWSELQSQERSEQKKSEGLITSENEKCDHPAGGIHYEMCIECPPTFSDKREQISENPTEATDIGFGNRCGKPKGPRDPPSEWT
Trypsin, sequence (P00761 whole entry): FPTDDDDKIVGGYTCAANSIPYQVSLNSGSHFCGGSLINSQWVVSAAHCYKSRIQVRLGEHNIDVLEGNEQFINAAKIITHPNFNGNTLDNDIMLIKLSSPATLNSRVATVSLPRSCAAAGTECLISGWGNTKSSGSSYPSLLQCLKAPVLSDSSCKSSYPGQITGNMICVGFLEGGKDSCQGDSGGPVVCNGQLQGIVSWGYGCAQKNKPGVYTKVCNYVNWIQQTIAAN
Melanocortin receptor 4, sequence (P32245 whole entry): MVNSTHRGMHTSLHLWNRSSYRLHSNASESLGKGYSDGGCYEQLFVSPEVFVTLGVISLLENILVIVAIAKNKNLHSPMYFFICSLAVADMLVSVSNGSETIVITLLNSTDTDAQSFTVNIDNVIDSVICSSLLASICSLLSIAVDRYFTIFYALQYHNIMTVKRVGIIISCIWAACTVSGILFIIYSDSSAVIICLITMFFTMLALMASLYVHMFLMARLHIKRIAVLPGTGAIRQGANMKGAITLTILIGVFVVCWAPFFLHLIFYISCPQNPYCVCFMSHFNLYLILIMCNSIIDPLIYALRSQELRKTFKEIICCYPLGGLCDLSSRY

Compound: N=c1c2c(-c3ccccc3)c(-c3ccccc3)n(Cc3ccccc3)c2ncn1CCCn1ccnc1
- EC50 [1]: 0.613 µM (active)
- IC50 [2]: > 64.6 µM (inactive)
- IC50 [3]: 8.3 µM (active)
- EC50 [4]: 7.16 µM (active)
- EC50 [5]: 5.47 µM (active)
- EC50 [6]: 0.85 µM (active)
- IC50 [7]: 43.2 µM (inactive)
- IC50 [8]: > 64.6 µM (inactive)
- EC50 [9]: 2.44 µM (active)
- EC50 [10]: 17 µM (active)

Compound: CCc1ccc(NC(=O)c2cnc(N3CCN(c4ccccn4)CC3)c3ccccc23)cc1
- AC50 [11]: 29.7 µM (active)
- EC50 [4]: > 30 µM (not active)
- AC50 [12]: 87.7 µM (active)
- AC50 [13]: 9.95 µM (active)
- EC50 [9]: 3.14 µM (active)

Compound: CCOc1cc(/C=C2/S/C(=N\c3ccccc3)NC2=O)cc(I)c1OCC(=O)O
- IC50 [14]: 33.8 µM (active)
- IC50 [15]: 7.6 µM (active)
- IC50 [16]: 6.03 µM (active)
- IC50 [17]: > 100 µM (inactive)
- IC50 [18]: 56.6 µM (active)
- IC50 [19]: 30.2 µM (active)
- IC50 [20]: 2.33 µM (active)

Compound: CN(C)c1ccc(-c2n(C)c3ccccc3[n+]2C)cc1
- EC50 [21]: > 150 µM (inactive)
- IC50 [3]: > 80 µM (inactive)
- EC50 [4]: 18.1 µM (active)
- IC50 [7]: > 80 µM (inactive)
- EC50 [9]: 0.582 µM (active)
- EC50 [22]: 2.18 µM (active)

Compound: CCN(Cc1ccccc1)S(=O)(=O)c1ccc(C(=O)N(CCCN(C)C)c2nc3cc(C)cc(C)c3s2)cc1
- AC50 [13]: 17 µM (active)
- IC50 [23]: > 20 µM (inactive)
- AC50 [24]: 4.44 µM (active)
- AC50 [25]: 7.04 µM (active)
- EC50 [26]: 17.7 µM (active)
